Results published in ChEMBL document CHEMBL5154726, “Identification of triazolopyridine derivatives as a new class of AhR agonists and evaluation of anti-psoriasis effect in a mouse model” (Eur J Med Chem, 2022).
pIC50: −log10 of the molar value. In brackets after ≈: the same amount, converted by molar mass. Activity calls are given as the source filed them. No cut-off for these calls is given here.

How the values were obtained:
[1] = biological target: T1, Aryl hydrocarbon receptor (Homo sapiens, UniProt P35869); experiment: Agonist activity at AhR signalling in human HaCaT cells assessed as increase in CYP1A1 mRNA expression by qRT-PCR analysis; type: cell-based; settings: 10 µM, DDE = dose-dependent effect
T1 sequence (P35869 whole entry): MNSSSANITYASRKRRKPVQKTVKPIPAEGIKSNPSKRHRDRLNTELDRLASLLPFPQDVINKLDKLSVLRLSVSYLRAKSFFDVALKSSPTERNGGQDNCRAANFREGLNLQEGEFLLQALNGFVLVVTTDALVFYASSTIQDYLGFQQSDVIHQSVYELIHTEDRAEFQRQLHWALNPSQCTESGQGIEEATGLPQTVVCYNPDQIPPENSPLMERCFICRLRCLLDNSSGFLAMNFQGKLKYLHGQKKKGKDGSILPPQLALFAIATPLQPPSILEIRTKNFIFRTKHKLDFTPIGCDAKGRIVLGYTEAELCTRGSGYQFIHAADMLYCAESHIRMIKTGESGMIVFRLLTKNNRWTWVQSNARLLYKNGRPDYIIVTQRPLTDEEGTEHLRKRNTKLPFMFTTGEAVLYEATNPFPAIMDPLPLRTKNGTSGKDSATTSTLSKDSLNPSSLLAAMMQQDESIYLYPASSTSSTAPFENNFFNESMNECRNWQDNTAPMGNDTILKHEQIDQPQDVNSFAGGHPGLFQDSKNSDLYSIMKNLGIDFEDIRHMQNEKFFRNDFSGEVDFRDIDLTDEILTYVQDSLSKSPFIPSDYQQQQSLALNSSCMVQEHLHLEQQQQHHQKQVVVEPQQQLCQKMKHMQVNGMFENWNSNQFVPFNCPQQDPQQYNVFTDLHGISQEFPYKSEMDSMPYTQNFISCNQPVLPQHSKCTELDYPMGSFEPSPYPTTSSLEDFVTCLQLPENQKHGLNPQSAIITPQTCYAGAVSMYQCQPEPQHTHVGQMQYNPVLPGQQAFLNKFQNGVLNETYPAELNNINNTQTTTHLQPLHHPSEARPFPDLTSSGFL

[2] = Solubility of the compound incubated for 48 hrs under shaking condition by LC/MS analysis; type: physicochemical
[3] = n-Octanol/water partition coefficient, logD of the compound at 1 mg incubated for 48 hrs under shaking condition by LC/MS analysis; type: physicochemical
[4] = biological target: T1, Aryl hydrocarbon receptor; experiment: Induction of Ahr nuclear translocation in human HaCaT cells at 10 uM incubated for 90 mins by immunofluorescence analysis; type: cell-based; settings: 1.5 h
[5] = biological target: NAD(P)H dehydrogenase [quinone] 1 (Homo sapiens) (UniProt P15559); experiment: Activation of NQO1 expression in human HaCaT cells up to 10 uM by qRT-PCR analysis; type: cell-based; settings: filed as activator
[6] = biological target: T1, Aryl hydrocarbon receptor; experiment: Induction of Ahr signalling in human HaCaT cells assessed as upregulation of FLG expression incubated for 48 hrs; type: cell-based
[7] = biological target: T1, Aryl hydrocarbon receptor; experiment: Induction of Ahr signalling in human HaCaT cells assessed as upregulation of IVL expression incubated for 48 hrs; type: cell-based
[8] = biological target: T1, Aryl hydrocarbon receptor; experiment: Induction of Ahr signalling in human HaCaT cells assessed as upregulation of HRNR expression incubated for 48 hrs; type: cell-based
[9] = Cytotoxicity against HEK293T cells assessed as reduction in cell viability measured after 72 hrs by MTT assay; type: toxicity, cell-based, HEK-293T; settings: human
[10] = Cytotoxicity against human HUVEC cells assessed as reduction in cell viability measured after 72 hrs by MTT assay; type: toxicity, cell-based
[11] = Cytotoxicity against human LX2 cells assessed as reduction in cell viability measured after 72 hrs by MTT assay; type: toxicity, cell-based, LX-2
[12] = biological target: Voltage-gated inwardly rectifying potassium channel KCNH2 (Homo sapiens, UniProt Q12809); experiment: Inhibition of hERG channel in HEK293 cells by whole-cell patch clamp assay; type: toxicity, cell-based
[13] = Tmax in Sprague-Dawley rat at 10 mg/kg, po measured up to 24 hrs by LC-MS/MS analysis; type: ADME, organism-based; settings: in vivo
[14] = AUC (0 to t) in Sprague-Dawley rat at 5 mg/kg, iv measured up to 24 hrs by LC-MS/MS analysis; type: ADME, organism-based; set-up: dose 5 mg/kg, time < 24 hrs, route iv; settings: in vivo
[15] = AUC (0 to t) in Sprague-Dawley rat at 10 mg/kg, po measured up to 24 hrs by LC-MS/MS analysis; type: ADME, organism-based; set-up: dose 10 mg/kg, time < 24 hrs, route po; settings: in vivo
[16] = AUC (0 to infinity) in Sprague-Dawley rat at 10 mg/kg, po measured up to 24 hrs by LC-MS/MS analysis; type: ADME, organism-based; set-up: time < 24 hrs, dose 10 mg/kg, route po; settings: in vivo
[17] = MRT in Sprague-Dawley rat at 10 mg/kg, po measured up to 24 hrs by LC-MS/MS analysis; type: ADME, organism-based; settings: in vivo
[18] = Half life in Sprague-Dawley rat at 5 mg/kg, iv measured up to 24 hrs by LC-MS/MS analysis; type: ADME, organism-based; settings: in vivo
Cytochrome P450 2C9 = Cytochrome P450 2C9 (Homo sapiens, UniProt P11712); experiment: Inhibition of CYP2C9 in human liver microsomes in presence of NADPH by LC-MS/MS analysis; type: ADME, Microsome
Cytochrome P450 2C19 = Cytochrome P450 2C19 (Homo sapiens, UniProt P33261); experiment: Inhibition of CYP2C19 in human liver microsomes in presence of NADPH by LC-MS/MS analysis; type: ADME, Microsome
Cytochrome P450 3A4 = Cytochrome P450 3A4 (Homo sapiens, UniProt P08684); experiment: Inhibition of CYP3A4 in human liver microsomes in presence of NADPH by LC-MS/MS analysis; type: ADME, Microsome
Mus musculus [19] = experiment: Anti-psoriatic activity in IMQ-induced BALB/c psoriasis mouse model assessed as reduction in skin thickening at 0.1 to 1 % treated topically by H and E staining based analysis; type: functional, organism-based; settings: dose 0.1-1 %
Mus musculus [20] = experiment: Anti-psoriatic activity in IMQ-induced BALB/c psoriasis mouse model assessed as reduction in IL-17f expression at 5 to 20 mg/kg, po by qRT-PCR analysis; type: functional, organism-based; settings: dose 5-20 mg/kg

Chain of Voltage-gated inwardly rectifying potassium channel KCNH2 (Q12809 whole entry): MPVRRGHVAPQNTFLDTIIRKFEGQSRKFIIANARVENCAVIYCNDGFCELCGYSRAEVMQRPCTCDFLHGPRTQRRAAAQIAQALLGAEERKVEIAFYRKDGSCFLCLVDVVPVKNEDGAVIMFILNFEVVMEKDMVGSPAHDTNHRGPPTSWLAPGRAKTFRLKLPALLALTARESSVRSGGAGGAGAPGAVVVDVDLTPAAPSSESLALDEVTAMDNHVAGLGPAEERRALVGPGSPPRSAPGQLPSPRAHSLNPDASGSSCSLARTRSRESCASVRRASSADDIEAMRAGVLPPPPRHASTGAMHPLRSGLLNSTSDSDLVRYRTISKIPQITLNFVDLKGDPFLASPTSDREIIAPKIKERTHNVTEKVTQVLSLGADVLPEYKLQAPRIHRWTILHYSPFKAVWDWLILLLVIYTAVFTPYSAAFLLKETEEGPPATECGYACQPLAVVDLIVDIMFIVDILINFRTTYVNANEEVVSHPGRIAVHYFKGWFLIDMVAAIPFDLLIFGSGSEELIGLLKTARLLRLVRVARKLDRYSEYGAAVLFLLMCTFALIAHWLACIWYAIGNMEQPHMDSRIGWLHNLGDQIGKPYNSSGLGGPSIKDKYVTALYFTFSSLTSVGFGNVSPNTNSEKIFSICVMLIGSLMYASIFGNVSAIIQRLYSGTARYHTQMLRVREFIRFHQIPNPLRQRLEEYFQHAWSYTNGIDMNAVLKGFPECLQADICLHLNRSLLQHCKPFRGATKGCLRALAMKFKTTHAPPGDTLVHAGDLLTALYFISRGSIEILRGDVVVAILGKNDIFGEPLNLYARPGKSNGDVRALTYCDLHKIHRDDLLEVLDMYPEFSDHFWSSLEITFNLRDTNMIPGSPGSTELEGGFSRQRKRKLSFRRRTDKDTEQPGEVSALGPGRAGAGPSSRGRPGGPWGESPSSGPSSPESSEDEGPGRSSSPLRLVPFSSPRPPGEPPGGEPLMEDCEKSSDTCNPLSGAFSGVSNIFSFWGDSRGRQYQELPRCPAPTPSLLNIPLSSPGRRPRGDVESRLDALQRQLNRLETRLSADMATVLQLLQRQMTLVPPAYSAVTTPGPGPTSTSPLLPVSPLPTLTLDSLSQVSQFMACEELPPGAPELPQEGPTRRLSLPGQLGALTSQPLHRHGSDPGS
Chain of Cytochrome P450 2C9 (P11712 whole entry): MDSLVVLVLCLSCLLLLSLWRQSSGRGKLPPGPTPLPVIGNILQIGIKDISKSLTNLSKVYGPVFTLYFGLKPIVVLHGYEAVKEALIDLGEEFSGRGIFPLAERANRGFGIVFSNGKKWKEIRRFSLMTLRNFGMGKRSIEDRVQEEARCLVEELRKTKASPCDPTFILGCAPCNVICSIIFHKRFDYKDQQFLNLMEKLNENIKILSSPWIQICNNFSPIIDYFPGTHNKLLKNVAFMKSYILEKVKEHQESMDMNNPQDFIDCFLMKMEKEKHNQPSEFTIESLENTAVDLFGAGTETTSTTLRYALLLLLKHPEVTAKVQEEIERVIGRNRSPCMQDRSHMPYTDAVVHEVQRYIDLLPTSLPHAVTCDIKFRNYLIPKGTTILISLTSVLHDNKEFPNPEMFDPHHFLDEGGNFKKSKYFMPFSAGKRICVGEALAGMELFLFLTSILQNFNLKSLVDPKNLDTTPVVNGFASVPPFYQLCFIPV
Chain of Cytochrome P450 2C19 (P33261 whole entry): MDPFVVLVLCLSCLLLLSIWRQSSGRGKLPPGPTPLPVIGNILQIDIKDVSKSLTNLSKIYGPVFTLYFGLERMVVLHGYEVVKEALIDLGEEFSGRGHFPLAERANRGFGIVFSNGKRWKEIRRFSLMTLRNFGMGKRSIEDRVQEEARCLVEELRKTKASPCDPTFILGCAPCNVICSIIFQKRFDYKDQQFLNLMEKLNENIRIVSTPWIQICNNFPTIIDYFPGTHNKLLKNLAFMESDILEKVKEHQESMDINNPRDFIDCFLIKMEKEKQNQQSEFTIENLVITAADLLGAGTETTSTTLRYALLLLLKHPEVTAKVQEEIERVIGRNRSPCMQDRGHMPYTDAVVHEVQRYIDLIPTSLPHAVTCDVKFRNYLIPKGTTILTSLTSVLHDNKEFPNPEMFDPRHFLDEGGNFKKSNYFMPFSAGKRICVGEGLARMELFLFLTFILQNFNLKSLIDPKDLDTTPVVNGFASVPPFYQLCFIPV
Chain of Cytochrome P450 3A4 (P08684 whole entry): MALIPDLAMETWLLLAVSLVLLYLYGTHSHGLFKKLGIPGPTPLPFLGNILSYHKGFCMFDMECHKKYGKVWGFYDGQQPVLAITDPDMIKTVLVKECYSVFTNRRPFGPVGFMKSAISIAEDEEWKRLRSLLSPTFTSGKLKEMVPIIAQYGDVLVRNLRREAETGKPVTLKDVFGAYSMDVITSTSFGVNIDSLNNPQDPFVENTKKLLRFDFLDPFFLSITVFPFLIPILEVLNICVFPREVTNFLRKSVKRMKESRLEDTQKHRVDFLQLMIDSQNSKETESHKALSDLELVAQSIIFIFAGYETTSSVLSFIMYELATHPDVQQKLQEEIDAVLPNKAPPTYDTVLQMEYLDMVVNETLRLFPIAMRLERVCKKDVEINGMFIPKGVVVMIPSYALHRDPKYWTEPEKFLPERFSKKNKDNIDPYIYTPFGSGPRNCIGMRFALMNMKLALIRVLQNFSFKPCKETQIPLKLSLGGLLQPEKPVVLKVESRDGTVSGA
Chain of NAD(P)H dehydrogenase [quinone] 1 (Homo sapiens) (P15559 whole entry): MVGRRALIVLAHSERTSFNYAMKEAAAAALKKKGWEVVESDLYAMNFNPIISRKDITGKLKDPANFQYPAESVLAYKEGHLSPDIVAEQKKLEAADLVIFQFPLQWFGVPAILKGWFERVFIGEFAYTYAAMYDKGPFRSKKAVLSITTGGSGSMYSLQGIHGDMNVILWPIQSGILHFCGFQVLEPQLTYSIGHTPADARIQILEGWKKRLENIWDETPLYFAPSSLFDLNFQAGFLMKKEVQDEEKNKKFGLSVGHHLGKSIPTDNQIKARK

Activity [1]: Dde
solubility thermodynamic at 48 h [2]: 17.2 µg/mL (≈ 48.6 µM)
logD at 48 h [3]: 2.97
Activity [4]: Active
Activity [5]: Active
Activity [6]: Active
Activity [7]: Active
Activity [8]: Active
Tmax [13]: 49.8 min
AUC(0-t) at 24 h [14]: 4640 ng·h/mL
AUC(0-t) at 24 h [15]: 1400 ng·h/mL
AUC(0-inf) [16]: 1420 ng·h/mL
MRT [17]: 109 min
half-life [18]: 48.6 min
pIC50 (Cytochrome P450 2C9): < 5.00
pIC50 (Cytochrome P450 2C19): < 5.00
pIC50 (Cytochrome P450 3A4): < 5.00
Compound: Brc1ccc(-c2nc3ccc(Br)cn3n2)cc1
IC50 at 72 h [9]: > 300 µM
IC50 at 72 h [10]: > 300 µM
IC50 at 72 h [11]: > 300 µM
pIC50 [12]: < 5.00
Activity (Mus musculus [19]): Active
Activity (Mus musculus [20]): Active
